Source: patent EP1101496A1, “THERAPEUTIC AGENTS FOR ALLERGIC DISEASES” (FUJI YAKUHIN KOGYO KABUSHIKI KAISHA, priority 1998, dated 2000)

Tests used:
[1] = system: Allergic Peritonitis; test: Allergic peritonitis induced by ovalbumin; type: in vivo, male Balb/c mice; conditions: for inhibition of infiltration of lymphocytes/macrophages into the peritoneal cavity: ovalbumin challenge
Experimental: In the same manner as in Example 23, mice were actively sensitized with ovalbumin and Alum, and, on Day 14 after the initial sensitization, elicited with an inducing antigen solution. A test metalloproteinase inhibitor compound (Compound No. 20: 30 mg/kg) or a negative control solvent, physiological saline (10 mL/kg), was administered subcutaneously to each animal 6, 3 hours, and 5 minutes pre-induction, 3, and 6 hours post-induction. At 24 hours post-induction, a physiological saline (containing heparin) was injected intraperitoneally at 4 mL/mouse for peritoneal lavage. An aliquot of the retrieved washout medium was taken, and not only measured for a PEC density but also stained for PEC followed by fractional counting. Each effect of the compound on the total PEC number (PEC density× 4 mL), and eosinophils and lymphocytes/macrophages is shown in Table 15. Almost similarly to Examples 22 to 24, the total PEC number and the numbers of eosinophils and lymphocytes/macrophages in the peritoneal cavity are reduced.
Each efficacy on intraperitoneal exudation of neutrophils was examined according to the methods as disclosed in Ouchi et al., "Seibutsu Yakukagaku Jikken Koza, Ensho To Allergy (Inflammation and Allergy) I-3", pp.139 to 151, Hirokawa Publishing Co., Japan and Spicer et al., The International Archives of Allergy and Applied Immunology, 81: 81 to 84, 1986.
In the same manner as in Example 23, male Balb/c mice were sensitized with ovalbumin and an aluminum hydroxide gel, and, on Day 14 after the initial sensitization, elicited with an antigen solution to raise allergic peritonitis. Each test metalloproteinase inhibitor (Compound No. 20 or 21: 30 mg/kg) or a negative control solvent, physiological saline (10 mL/kg), was administered subcutaneously to each animal 1 hour prior to induction, and 3 hours post-induction. At 6 hours post-induction, peritoneal lavage was done similarly to Example 22, measured for a PEC density, and counted for the total PEC number. In the same manner as in Example 22, PEC was stained, and subjected to fractional counting under a microscope with classification into neutrophils, eosinophils, lymphocytes/macrophages and basophils based on their form and stain nature. Each cell ratio was as follows: 2.3% (neutrophil), 1.1% (eosinophil), 95.4% (lymphocyte/macrophage), and 1.2% (basophil) for unsensitized/physiological saline-administered mice; and 5.7% (neutrophil), 11.9% (eosinophil), 81.3% (lymphocyte/macrophage), and 1.1% (basophil) for sensitized/physiological saline-administered mice. By a similar line of reasoning in Example 22, basophils were excluded from subjects to be examined. In the same manner as in Example 22, intraperitoneal exudation inhibition rates were calculated and expressed as the therapeutic efficacies.

[2] = system: IgE-mediated auricle edema; test: Auricle edema in experimental atopic dermatitis model (anti-DNP IgE sensitization, DNFB elicitation); type: in vivo, Balb/c mice; conditions: for % Inhibition vLPR: 7 or 8 days post-elicitation; for % Inhibition vLPR / % Inhibition IPR / % Inhibition LPR: painted on auricles 60 µg/ear/dose in ethanol twice a day; for % Inhibition IPR: 1 hour post-elicitation, 1 hour pre-elicitation to 6 days post-elicitation; for % Inhibition LPR: 1 day post-elicitation
Experimental: Intravenous injection of an anti-2,4-dinitrophenol (DNP) antibody (anti-DNP Ab, monoclonal IgE Ab; its antibody titer was 1 : 512 to 1 : 1024 by a rat heterologous passive cutaneous anaphylaxis reaction using a Wister rat) into a tail vein of female Balb/c mice (7-week old, body weight: 17 to 20 g, purchased from JAPAN SLC, Inc.) at a dose of […] per animal raised passive sensitization. Twenty four hours post-sensitization, 0.1% 2,4-dinitrofluorobenzene (DNFB; Nacalai Tesque, Inc.) in ethanol was painted onto both sides of a pair of mouse auricles at a dose of 10 µL per each side for elicitation.
Fresh unsensitized mice were painted with 0.1% DNFB in ethanol onto their ear in the same manner as aforementioned and served as a control group. Not only immediately prior to elicitation but also 1 hour, 5 hours, daily between Days 1 and 14, and on Day 16 post-elicitation, ear thickness was measured using a dial thickness gauge (Peacock Co.). Each degree of auricle edemas was calculated: Auricular Edema (µm)=(Ear Thickness Post-Elicitation, µm) - (Ear Thickness immediately prior to Elicitation, µm) [formula]
Balb/c mice were passively sensitized with anti-DNP IgE Ab in the same manner as in Example 1. Twenty four hours later, 0.1% DNFB in ethanol was painted onto both sides of a pair of mouse auricles at a dose of 10 µL per each side for elicitation.
Immediately prior to elicitation, 1 hour and on Day 1 post-elicitation, auricle thickness was measured in the same manner as in Example 1. Each therapeutic efficacy is recorded as a percent inhibition wherein the "auricle edema (untreated group)" is used as a control. Auricle Edema Inhibition (%) = [ 1 -(Auricle Edema (Treated Group))/(Auricle Edema (Untreated Group))] × 100 (%) [formula]
Mice were sensitized with anti-DNP IgE Ab and then elicited by painting 0.1% DNFB in ethanol onto both sides of a pair of mouse auricles at a dose of 10 µL per each side 24 hours post-sensitization in the same manner as in Example 1. […] Immediately prior to elicitation, and on Day 7 post-elicitation, auricle thickness was similarly measured. Each therapeutic efficacy is recorded as a percent inhibition wherein the auricle edema in the untreated group is used as a control.
Mice were sensitized with anti-DNP IgE Ab and then elicited by painting 0.1% DNFB in ethanol onto both sides of a pair of mouse auricles at a dose of 10 µL per each side 24 hours post-sensitization in the same manner as in Example 1. […] Immediately prior to elicitation, and on Day 7 post-elicitation, auricle thickness was similarly measured. Each therapeutic efficacy is recorded as a percent inhibition wherein the auricle edema (untreated group) is used as a control.
Mice were sensitized with anti-DNP IgE Ab and then elicited by painting 0.1% DNFB in ethanol onto both sides of a pair of mouse auricles at a dose of 10 µL per each side 24 hours post-sensitization in the same manner as in Example 1. […] Immediately prior to elicitation, at 1 and 4 hours and on Days 1, 3 and 7 post-elicitation, auricle thickness was similarly measured. From each auricle edema (µm) based on the auricle thickness immediately prior to elicitation, especially a prophylactically therapeutic efficacy of the test compound was evaluated.
Mice were sensitized with anti-DNP IgE Ab and then elicited by painting 0.1% DNFB in ethanol onto both sides of a pair of mouse auricles at a dose of 10 µL per each side 24 hours post-sensitization in the same manner as in Example 1. A solution of a test metalloproteinase inhibitor (Compound No. 8; 50 µg/ear/dose, twice a day) in ethanol was painted onto both sides of a pair of the mouse auricles 1 hour pre-elicitation, 0.25, 3, 4, 5 and 6 days post-elicitation (5 animals per group). Immediately prior to elicitation, at 0.5, 1 and 4 hours and on Days 1, 3 and 7 post-elicitation, auricle thickness was similarly measured. Each amount of auricle edemas was calculated (average± standard deviation). […]

[3] = 30 mg/kg s.c. 6, 3 hours and 5 minutes pre-induction, 3 and 6 hours post-induction, 24 hours post-induction (Example 25)
[4] = 30 mg/kg s.c. 1 hour prior to and 3 hours post-induction, 6 hours post-induction (Example 26)

| Structure (SMILES) | inhibition of infiltration of lymphocytes/macrophages into the peritoneal cavity ([1]; 30 mg/kg i.p. 5 minutes prior to and 3 and 6 hours post-induction (Example 23)) [%] | inhibition of infiltration of lymphocytes/macrophages into the peritoneal cavity ([1]; 30 mg/kg s.c. 6 hours and 5 minutes prior to induction, 24 hours after induction (Example 24)) [%] | inhibitory efficacy on IgE-mediated auricle edema in IPR, LPR and vLPR (FIG. 6) ([2]; 60 mg/kg s.c. only 24 and 2 hours prior to elicitation, compared with prednisolone 10 mg/kg i.p.) | inhibitory efficacy on IgE-mediated auricle edema in IPR, LPR and vLPR (FIG. 7) ([2]; painted on auricles, 50 µg/ear/dose in ethanol, 1 hour pre-elicitation and 0.25, 3, 4, 5, 6 days post-elicitation) | Leukocyte exudate inhibition rate (%) (Macrophages)/(Lymphocytes) [1, 3] | Leukocyte exudate inhibition rate (%) Eosinophils [1, 3] [%] | Leukocyte exudate inhibition rate (%) Total PEC Number [1, 3] [%] | Leukocyte exudate inhibition rate (%) Eosinophils [1, 4] [%] | Leukocyte exudate inhibition rate (%) Neutrophils [1, 4] [%] | Leukocyte exudate inhibition rate (%) Total PEC Number [1, 4] [%] | % Inhibition vLPR [2] [%] | % Inhibition IPR [2] [%] | % Inhibition LPR [2] [%] |
| --- | --- | --- | --- | --- | --- | --- | --- | --- | --- | --- | --- | --- | --- |
| CNC(=O)[C@H](Cc1ccc(NC(=N)N)cc1)NC(=O)[C@H](CC(C)C)C(CCCc1ccccc1)C(=O)NO (single isomer, unassigned) [Compound No. 8, N-[4-(N-hydroxyamino)-2(R)-isobutyl-3(R or S)-(3-phenyltrimethylene)succinyl]-L-4'-guanidophenylalanine-N-methylamide 1 acetate] | 74.9 | 91.2 | edema-inhibitory activity equivalent to that of prednisolone in IPR and slightly and markedly higher than that of prednisolone in LPR and vLPR | endowed with an inhibitory activity on edemas in any of IPR, LPR, and vLPR | – | – | – | – | – | – | – | – | – |
| CNC(=O)[C@H](Cc1ccc(NC(=N)N)cc1)NC(=O)[C@H](CC(C)C)C(CCCc1ccccc1)C(=O)NO.Cl (single isomer, unassigned) [Compound No. 20, N-[4-(N-hydroxyamino)-2(R)-isobutyl-3(R or S)-(3-phenyltrimethylene)succinyl]-L-4'-guanidophenylalanine-N-methylamide 1 hydrochloride] | – | – | – | – | 55.1 | 38.9 | 49.6 | 38.4 | 41.4 | 40.9 | 31 | 56 | 58 |
| CNC(=O)[C@H](Cc1ccc(N=C(N)N)cc1)NC(=O)[C@@H](CC(=O)NO)CC(C)C.O=S(=O)(O)O [Compound No. 21, N-[4-(N-hydroxyamino)-2(R)-isobutylsuccinyl]-L-4'-guanidophenylalanine-N-methylamide 1 sulfate] | – | – | – | – | – | – | – | – | 27.1 | 38.6 | 35 | 31 | 22 |
